Source: patent US20100261706A1, “SUBSTITUTED TETRACYCLIC 1H-INDENO [1,2-B]PYRIDINE-2(5H)-ONE ANALOGS THEREOF AND USES THEREOF” (INOTEK PHARMACEUTICALS CORPORATION, priority 2008, published 2010)
Where a name gives a salt, the structure may show the parent alone.

How the values were obtained:
[1] = target: T1, PARP (Mus musculus, UniProt P11103); experiment: PARP activity in cultured macrophages, whole-cell based assay (3H-NAD+ incorporation after hydrogen peroxide); conditions: murine RAW macrophages, 1 hour pretreatment, hydrogen peroxide 0.5 mM
T1 construct: PARP Activity in Cultured Macrophages, Using a Whole-Cell Based Assay; endogenous in cells; host or cells: murine RAW macrophages (ATCC)
T1 sequence (P11103 whole entry): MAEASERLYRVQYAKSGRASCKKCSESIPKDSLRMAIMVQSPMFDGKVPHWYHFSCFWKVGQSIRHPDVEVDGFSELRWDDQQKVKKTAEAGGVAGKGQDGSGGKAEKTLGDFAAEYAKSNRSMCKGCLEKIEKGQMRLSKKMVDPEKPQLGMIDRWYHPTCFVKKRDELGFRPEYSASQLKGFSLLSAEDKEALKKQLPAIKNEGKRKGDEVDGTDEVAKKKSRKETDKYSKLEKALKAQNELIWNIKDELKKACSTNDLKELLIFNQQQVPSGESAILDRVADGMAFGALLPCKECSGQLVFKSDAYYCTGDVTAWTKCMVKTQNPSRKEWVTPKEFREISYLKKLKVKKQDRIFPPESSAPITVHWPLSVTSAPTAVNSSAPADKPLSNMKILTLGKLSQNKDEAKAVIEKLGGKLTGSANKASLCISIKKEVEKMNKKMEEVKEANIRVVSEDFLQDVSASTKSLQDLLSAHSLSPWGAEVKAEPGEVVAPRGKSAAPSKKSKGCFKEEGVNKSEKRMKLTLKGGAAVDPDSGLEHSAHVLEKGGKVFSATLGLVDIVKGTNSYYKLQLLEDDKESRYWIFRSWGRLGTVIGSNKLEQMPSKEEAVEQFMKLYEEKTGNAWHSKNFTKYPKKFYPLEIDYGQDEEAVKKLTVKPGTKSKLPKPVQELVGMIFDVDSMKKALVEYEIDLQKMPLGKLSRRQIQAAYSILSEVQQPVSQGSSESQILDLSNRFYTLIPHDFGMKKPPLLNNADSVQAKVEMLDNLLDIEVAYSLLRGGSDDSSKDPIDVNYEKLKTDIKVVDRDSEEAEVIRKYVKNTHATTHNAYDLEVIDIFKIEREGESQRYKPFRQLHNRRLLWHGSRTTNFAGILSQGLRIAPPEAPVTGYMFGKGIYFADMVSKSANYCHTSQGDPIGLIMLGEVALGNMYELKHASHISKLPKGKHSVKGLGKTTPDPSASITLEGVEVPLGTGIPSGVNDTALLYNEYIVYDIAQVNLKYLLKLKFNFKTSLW
Procedure: Effect of Tetracyclic 1H-indeno[1,2-b]pyridine-2(511)-one Analogs on PARP Activity in Cultured Macrophages, Using a Whole-Cell Based Assay
The murine RAW macrophages (ATCC, American Type Culture Collection, Manassas, Va.) were grown in […] (Invitrogen Life Technologies; Carlsbad, Calif.) medium supplemented with 10% heat-inactivated FBS, 2 mM L-glutamine, and 100 U/ml of penicillin and streptomycin. Cells, between passages 5 and 15, were seeded at a density of 250,000 cells/well in 12 well plates and allowed to grow 48 hours before use. Growth medium was changed on the day of use. Cells were treated with a tetracyclic 1H-indeno[1,2-b]pyridine-2(5H)-one analog diluted in a growth medium supplemented with 10% fetal bovine serum (FBS) for 1 hour prior to the addition of hydrogen peroxide (0.5 mM) for a further 25 minutes. For the measurement of PARP activity, media was removed and replaced with 0.5 ml of the assay buffer (56 mM HEPES-pH 7.5, 28 mM KCl, 28 mM NaCl, 2 mM MgCl2, 0.01% digitonin, and 0.5 μCi/ml of ^3H-NAD^+) for 20 minutes. After aspirating the assay buffer, cells were lysed and transferred to eppendorf tubes containing 250 μl of 50% ice-cold trichloroacetic acid (TCA), which were then placed at 4° C. for 4 hours. Samples were centrifuged at 10,000 g for 10 minutes and supernatant removed. The pellets were washed twice with 500 μl of ice-cold 5% w/v TCA. The pellets were then solubilized in 250 μl of NaOH (0.1 M) containing 2% SDS overnight at 37° C. and the PARP activity was then determined by measuring the radioactivity incorporated using a Wallac scintillation counter. The solubilized protein (250 μl) was mixed with 5 ml of scintillation fluid (ScintiSafe Plus, Fisher Scientific) before being counted for 3 minutes. EC50 values were determined from a dose-response curve.

[2] = target: T2, PARP-1 enzyme (Homo sapiens, UniProt P09874); experiment: Purified PARP-1 enzyme inhibition assay (Trevigen kit, 96 well ELISA plates); assay type: biochemical
T2 construct: purchased Trevigen, Gaithersburg, Md
T2 sequence (P09874 whole entry): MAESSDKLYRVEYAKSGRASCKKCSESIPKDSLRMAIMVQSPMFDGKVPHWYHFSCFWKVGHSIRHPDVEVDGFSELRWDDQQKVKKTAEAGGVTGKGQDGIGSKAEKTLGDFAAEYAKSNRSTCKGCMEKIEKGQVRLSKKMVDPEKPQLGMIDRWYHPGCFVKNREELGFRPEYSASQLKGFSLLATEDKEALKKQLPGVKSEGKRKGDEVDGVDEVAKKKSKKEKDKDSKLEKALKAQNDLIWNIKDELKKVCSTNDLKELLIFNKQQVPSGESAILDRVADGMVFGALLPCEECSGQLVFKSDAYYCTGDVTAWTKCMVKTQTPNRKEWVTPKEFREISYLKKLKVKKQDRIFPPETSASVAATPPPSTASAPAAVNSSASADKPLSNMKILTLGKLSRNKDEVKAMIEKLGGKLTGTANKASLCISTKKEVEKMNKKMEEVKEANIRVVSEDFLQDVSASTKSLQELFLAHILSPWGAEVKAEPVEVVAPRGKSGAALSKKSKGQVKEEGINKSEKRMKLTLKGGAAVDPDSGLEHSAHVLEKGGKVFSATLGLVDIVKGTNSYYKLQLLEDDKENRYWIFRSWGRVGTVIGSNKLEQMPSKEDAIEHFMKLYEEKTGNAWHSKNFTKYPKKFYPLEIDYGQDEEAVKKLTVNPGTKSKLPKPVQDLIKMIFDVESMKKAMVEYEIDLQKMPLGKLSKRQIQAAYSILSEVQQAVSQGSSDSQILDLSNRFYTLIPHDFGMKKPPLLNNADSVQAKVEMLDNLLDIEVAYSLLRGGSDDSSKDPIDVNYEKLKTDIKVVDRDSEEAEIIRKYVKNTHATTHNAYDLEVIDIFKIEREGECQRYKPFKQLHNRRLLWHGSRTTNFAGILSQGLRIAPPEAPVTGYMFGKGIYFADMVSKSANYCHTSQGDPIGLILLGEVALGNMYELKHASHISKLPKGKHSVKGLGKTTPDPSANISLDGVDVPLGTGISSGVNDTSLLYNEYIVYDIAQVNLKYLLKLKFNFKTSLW
Procedure: Effect of Tetracyclic 1H-indeno[1,2-b]pyridine-2(5H)-one analogs on PARP Activity in purified PARP-1 enzyme assay
The potency of inhibition on purified PARP-1 enzyme was subsequently determined for selected compounds, and the potency was compared with INO-1001. The assay was performed in 96 well ELISA plates according to instructions provided with a commercially available PARP-1 inhibition assay kit (Trevigen, Gaithersburg, Md.). Briefly, wells were coated with 1 mg/ml histone (50 μl/well) at 4° C. overnight. Plates were then washed four times with PBS and then blocked by adding 50 μl Strep-Diluent (supplied with the kit). After incubation (1 h, 25° C.), the plates were washed four times with PBS. Appropriate dilutions of compound was combined with 2×PARP cocktail (1.95 mM NAD^+, 50 μM biotinylated NAD^+ in 50 mM TRIS pH 8.0, 25 mM MgCl2) and high specific activity PARP enzyme (both were supplied with the kit) in a volume of 50 μl. The reaction was allowed to proceed for 30 min at room temperature. After 4 washes in PBS, incorporated biotin was detected by peroxidase-conjugated streptavidin (1:500 dilution) and TACS Sapphire substrate. EC50 and IC50 values were determined from a dose-response curve.

| Compound | EC50 [1] [nM] | IC50 [2] [nM] |
| --- | --- | --- |
| O=c1[nH]c2c(c3c1CCCC3)Cc1c(CN3CCCCCC3)cccc1-2 [Example 5, 10-(azepan-1-ylmethyl)-3,4,6,11-tetrahydro-1H-indeno[1,2-c]isoquinolin-5(2H)-one] | 7.8 | – |
| O=c1[nH]c2c(c3c1CCCC3)Cc1c(CN3CCCC3)cccc1-2 [Example 8, 10-(pyrrolidin-1-ylmethyl)-3,4,6,11-tetrahydro-1H-indeno[1,2-c]isoquinolin-5(2H)-one hydrochloride] | 8.5 | – |
| O=c1[nH]c2c(c3sccc13)Cc1c(CN3CCC(C(F)(F)F)CC3)cccc1-2 [Example 54, 9-((4-(trifluoromethyl)piperidin-1-yl)methyl)-5,10-dihydro-4H-indeno[1,2-b]thieno[2,3-d]pyridin-4-one] | > 500 | – |
| O=c1[nH]c2c(c3c1CCCC3)Cc1cc(CN3CCC(O)CC3)ccc1-2 [Example 38, 9-((4-hydroxypiperidin-1-yl)methyl)-3,4,6,11-tetrahydro-1H-indeno[1,2-c]isoquinolin-5(2H)-one] | 300 | – |
| O=c1[nH]c2c(c3c1CCCC3)Cc1c(CN3CCCC3)cccc1-2 [Example 6, 10-(pyrrolidin-1-ylmethyl)-3,4,6,11-tetrahydro-1H-indeno[1,2-c]isoquinolin-5(2H)-one] | 8.46 | – |
| CCOC1CCN(Cc2cccc3c2Cc2c-3[nH]c(=O)c3c2CCCC3)CC1 [Example 14, 10-((4-ethoxypiperidin-1-yl)methyl)-3,4,6,11-tetrahydro-1H-indeno[1,2-c]isoquinolin-5(2H)-one mesylate] | 12.7 | – |
| CCCN1CCN(Cc2ccc3c(c2)Cc2c-3[nH]c(=O)c3c2CCCC3)CC1 [Example 34, 9-((4-propylpiperazin-1-yl)methyl)-3,4,6,11-tetrahydro-M-indeno[1,2-c]isoquinolin-5(2H)-one] | 200 | – |
| O=c1[nH]c2c(c3c1CCCC3)Cc1c(CO)cccc1-2 [Example 29, 10-(hydroxymethyl)-3,4,6,11-tetrahydro-1H-indeno[1,2-c]isoquinolin-5(2H)-one] | 25 | – |
| O=c1[nH]c2c(c3c1CCCC3)Cc1cc(CN3CCC(F)CC3)ccc1-2 [Example 66, 9-((4-fluoropiperidin-1-yl)methyl)-3,4,6,11-tetrahydro-1H-indeno[1,2-c]isoquinolin-5(2H)-one] | 37.5 | – |
| O=c1[nH]c2c(c3c1CCCC3)Cc1c(CN3CCCCCCC3)cccc1-2 [Example 10, 10-(azocan-1-ylmethyl)-3,4,6,11-tetrahydro-1H-indeno[1,2-c]isoquinolin-5(2H)-one] | 37 | – |
| O=c1[nH]c2c(c3c1CCCC3)Cc1cc(CN3CCOCC3)ccc1-2 [Example 37, 9-(morpholinomethyl)-3,4,6,1′-tetrahydro-4H-indeno[1,2-c]isoquinolin-5(2H)-one] | 300 | – |
| CCN(CC)Cc1ccc2c(c1)Cc1c-2[nH]c(=O)c2c1CCCC2 [Example 64, 9-((diethylamino)methyl)-3,4,6,11-tetrahydro-1H-indeno[1,2-c]isoquinolin-5(2H)-one] | 4.48 | – |
| O=c1[nH]c2c(c3c1CCCC3)Cc1c(CN3CCCCC3)cccc1-2 [Example 4, 10-(piperidin-1-ylmethyl)-3,4,6,11-tetrahydro-1H-indeno[1,2-c]isoquinolin-5(2H)-one hydrochloride] | 1.5 | – |
| O=c1[nH]c2c(c3ncccc13)Cc1c(CO)cccc1-2 [Example 57, 10-(hydroxymethyl)-6,11-dihydro-5H-indeno[1,2-h][1,6]naphthyridin-5-one] | 334 | – |
| O=c1[nH]c2c(c3c1CCCC3)Cc1c(CN3CC[C@H](F)C3)cccc1-2 [Example 15, (S)-10-((3-fluoropyrrolidin-1-yl)methyl)-3,4,6,11-tetrahydro-1H-indeno[1,2-c]isoquinolin-5(2H)-one] | 11.7 | – |
| O=c1[nH]c2c(c3c1CCCC3)Cc1c(CN3CCNCC3)cccc1-2 [Example 31, 10-(piperazin-1-ylmethyl)-3,4,6,11-tetrahydro-1H-indeno[1,2-c]isoquinolin-5(2H)-one] | 80 | – |
| O=c1[nH]c2c(c3ccsc13)Cc1c(CN3CCC(C(F)(F)F)CC3)cccc1-2 [Example 47, 9-((4-(trifluoromethyl)piperidin-1-yl)methyl)-5,10-dihydro-4H-indeno[1,2-b]thieno[3,2-d]pyridin-4-one] | 9 | – |
| O=c1[nH]c2c(c3c1CCCC3)Cc1c(CN3CCC(O)CC3)cccc1-2 [Example 3, 10-((4-hydroxypiperidin-1-yl)methyl)-3,4,6,11-tetrahydro-1H-indeno[1,2-c]isoquinolin-5(2H)-one hydrochloride] | – | 11.3 |
| O=c1[nH]c2c(c3c1CCCC3)Cc1cc(CN3CCC(F)(F)CC3)ccc1-2 [Example 65, 9-((4,4-difluoropiperidin-1-yl)methyl)-3,4,6,11-tetrahydro-1H-indeno[1,2-c]isoquinolin-5(2H)-one] | 748 | – |

More lines, in order of falling EC50 [1], values ahead:

| EC50 [1] [nM] | IC50 [2] [nM] | Compound |
| --- | --- | --- |
| 749 | – | O=c1[nH]c2c(c3c1CCCC3)Cc1c(CN3CCC(F)(F)CC3)cccc1-2 [Example 12, 10-((4,4-difluoropiperidin-1-yl)methyl)-3,4,6,11-tetrahydro-1H-indeno[1,2-c]isoquinolin-5(2H)-one] |
| 300 | – | COCCN1CCN(Cc2ccc3c(c2)Cc2c-3[nH]c(=O)c3c2CCCC3)CC1 [Example 35, 9-((4-(2-methoxyethyl)piperazin-1-yl)methyl)-3,4,6,11-tetrahydro-1H-indeno[1,2-c]isoquinolin-5(2H)-one] |
| 250 | – | COC(=O)c1ccc2c(c1)Cc1c-2[nH]c(=O)c2c1CCCC2 [Example 30, methyl 5-oxo-2,3,4,5,6,11-hexahydro-1H-indeno[1,2-c]isoquinoline-9-carboxylate] |
| 200 | – | CCCCN1CCN(Cc2ccc3c(c2)Cc2c-3[nH]c(=O)c3c2CCCC3)CC1 [Example 44, 9-((4-butylpiperazin-1-yl)methyl)-3,4,6,11-tetrahydro-4H-indeno[1,2-c]isoquinolin-5(2H)-one] |
| 169 | – | O=c1[nH]c2c(c3c1CCCC3)Cc1c(CN3CCSC3)cccc1-2 [Example 13, 10-(thiazolidin-3-ylmethyl)-3,4,6,11-tetrahydro-1H-indeno[1,2-c]isoquinolin-5(2H)-one] |
| 100 | – | O=c1[nH]c2c(c3c1CCCC3)Cc1cc(CN3CCCC3)ccc1-2 [Example 39, 9-(pyrrolidin-1-ylmethyl)-3,4,6,11-tetrahydro-1H-indeno[1,2-c]isoquinolin-5(2H)-one] |
| 100 | – | COC(=O)c1cccc2c1Cc1c-2[nH]c(=O)c2c1CCCC2 [Example 63, methyl 5-oxo-2,3,4,5,6,11-hexahydro-1H-indeno[1,2-c]isoquinoline-10-carboxylate] |
| 95 | – | O=c1[nH]c2c(c3c1CCCC3)Cc1cc(CO)ccc1-2 [Example 33, 9-(hydroxymethyl)-3,4,6,11-tetrahydro-1H-indeno[1,2-c]isoquinolin-5(2H)-one] |
| 60 | – | O=c1[nH]c2c(c3c1CCCC3)Cc1cc(CNC3CCCC3)ccc1-2 [Example 40, 9-((cyclopentylamino)methyl)-3,4,6,11-tetrahydro-1H-indeno[1,2-c]isoquinolin-5(2H)-one] |
| 35 | – | CN(C)Cc1cccc2c1Cc1c-2[nH]c(=O)c2c1CCCC2 [Example 28] |
| 16 | – | COCCNCc1cccc2c1Cc1c-2[nH]c(=O)c2c1CCCC2 [Example 27, 10-((2-methoxyethylamino)methyl)-3,4,6,11-tetrahydro-1H-indeno[1,2-c]isoquinolin-5(2H)-one] |
| 8 | – | CC(C)(N)c1cccc2c1Cc1c-2[nH]c(=O)c2c1CCCC2 [Example 46, 10-(2-aminopropan-2-yl)-3,4,6,11-tetrahydro-1H-indeno[1,2-c]isoquinolin-5(2H)-one] |
| 7.8 | – | O=c1[nH]c2c(c3c1CCCC3)Cc1c(CN3CCC(N4CCCCC4)CC3)cccc1-2 [Example 22, 10-(1,4′-bipiperidin-1′-ylmethyl)-3,4,6,11-tetrahydro-1H-indeno[1,2-c]isoquinolin-5(2H)-one dihydrochloride] |
